In ChEMBL document CHEMBL4393710, “Discovery of Dioxino[2,3-f]quinazoline derivative VEGFR-2 inhibitors exerting significant antipro-liferative activity in HUVECs and mice” (Eur J Med Chem, 2019):

Legend:
L02 = test: Antiproliferative activity against human LO2 cells incubated for 72 hrs by CCK8 assay; details: L02, 72 h
HUVEC = test: Inhibition of VEGF-induced cell proliferation of HUVEC incubated for 72 hrs by CCK8 assay; details: Homo sapiens
HEK293 = test: Antiproliferative activity against HEK293 cells incubated for 72 hrs by CCK8 assay; details: Homo sapiens, HEK293, 72 h
[1] = target: Vascular endothelial growth factor receptor 2 (Homo sapiens, UniProt P35968); test: Inhibition of human N-terminal GST-tagged VEGFR2 cytoplasmic domain (790 to 1356 residues) expressed in baculovirus expression system using Ulight-JAK-1(Tyr1023) peptide as substrate preincubated for 30 mins followed by substrate addition and measured after 60 mins by spectrometric method
[2] = Toxicity in nude mouse xenografted with human SMMC7721 cells assessed as side effect at 60 mg/kg, po administered daily for 6 days; assay type: organism-based; details: in vivo, 144 h
[3] = Toxicity in nude mouse xenografted with human SMMC7721 cells assessed as change in body weight at 60 mg/kg, po administered daily for 6 days and measured every 3 days; assay type: organism-based; details: in vivo
SMMC-7721 [4] = test: Antitumor activity against human SMMC7721 cells xenografted in nude mouse assessed as tumor growth inhibition at 60 mg/kg, po administered daily for 6 days and measured on day 9 relative to control; assay type: functional; details: SMMC-7721, po, read-out: TGI
SMMC-7721 [5] = test: Antitumor activity against human SMMC7721 cells xenografted in nude mouse assessed as tumor growth inhibition at 60 mg/kg, po administered daily for 6 days and measured on day 6 relative to control; assay type: functional; details: SMMC-7721, po, 144 h, read-out: TGI
[6] = Toxicity in nude mouse xenografted with human SMMC7721 cells assessed as mortality at 60 mg/kg, po administered daily for 6 days; assay type: organism-based; details: in vivo, 144 h
SMMC-7721 [7] = test: Antitumor activity against human SMMC7721 cells xenografted in nude mouse assessed as tumor volume at 60 mg/kg, po administered daily for 6 days and measured on day 9 (reference value: 3005.8 +/- 225.3 mm3); assay type: functional
SMMC-7721 [8] = test: Antiproliferative activity against human SMMC7721 cells incubated for 72 hrs by CCK8 assay; assay type: functional, cell-based; details: SMMC-7721, 72 h
SMMC-7721 [9] = test: Antitumor activity against human SMMC7721 cells xenografted in nude mouse assessed as tumor volume at 60 mg/kg, po administered daily for 6 days and measured on day 6 (reference value: 1990.2 +/- 179.2 mm3); assay type: functional

Vascular endothelial growth factor receptor 2, sequence (P35968 whole entry, the tested form may be a part): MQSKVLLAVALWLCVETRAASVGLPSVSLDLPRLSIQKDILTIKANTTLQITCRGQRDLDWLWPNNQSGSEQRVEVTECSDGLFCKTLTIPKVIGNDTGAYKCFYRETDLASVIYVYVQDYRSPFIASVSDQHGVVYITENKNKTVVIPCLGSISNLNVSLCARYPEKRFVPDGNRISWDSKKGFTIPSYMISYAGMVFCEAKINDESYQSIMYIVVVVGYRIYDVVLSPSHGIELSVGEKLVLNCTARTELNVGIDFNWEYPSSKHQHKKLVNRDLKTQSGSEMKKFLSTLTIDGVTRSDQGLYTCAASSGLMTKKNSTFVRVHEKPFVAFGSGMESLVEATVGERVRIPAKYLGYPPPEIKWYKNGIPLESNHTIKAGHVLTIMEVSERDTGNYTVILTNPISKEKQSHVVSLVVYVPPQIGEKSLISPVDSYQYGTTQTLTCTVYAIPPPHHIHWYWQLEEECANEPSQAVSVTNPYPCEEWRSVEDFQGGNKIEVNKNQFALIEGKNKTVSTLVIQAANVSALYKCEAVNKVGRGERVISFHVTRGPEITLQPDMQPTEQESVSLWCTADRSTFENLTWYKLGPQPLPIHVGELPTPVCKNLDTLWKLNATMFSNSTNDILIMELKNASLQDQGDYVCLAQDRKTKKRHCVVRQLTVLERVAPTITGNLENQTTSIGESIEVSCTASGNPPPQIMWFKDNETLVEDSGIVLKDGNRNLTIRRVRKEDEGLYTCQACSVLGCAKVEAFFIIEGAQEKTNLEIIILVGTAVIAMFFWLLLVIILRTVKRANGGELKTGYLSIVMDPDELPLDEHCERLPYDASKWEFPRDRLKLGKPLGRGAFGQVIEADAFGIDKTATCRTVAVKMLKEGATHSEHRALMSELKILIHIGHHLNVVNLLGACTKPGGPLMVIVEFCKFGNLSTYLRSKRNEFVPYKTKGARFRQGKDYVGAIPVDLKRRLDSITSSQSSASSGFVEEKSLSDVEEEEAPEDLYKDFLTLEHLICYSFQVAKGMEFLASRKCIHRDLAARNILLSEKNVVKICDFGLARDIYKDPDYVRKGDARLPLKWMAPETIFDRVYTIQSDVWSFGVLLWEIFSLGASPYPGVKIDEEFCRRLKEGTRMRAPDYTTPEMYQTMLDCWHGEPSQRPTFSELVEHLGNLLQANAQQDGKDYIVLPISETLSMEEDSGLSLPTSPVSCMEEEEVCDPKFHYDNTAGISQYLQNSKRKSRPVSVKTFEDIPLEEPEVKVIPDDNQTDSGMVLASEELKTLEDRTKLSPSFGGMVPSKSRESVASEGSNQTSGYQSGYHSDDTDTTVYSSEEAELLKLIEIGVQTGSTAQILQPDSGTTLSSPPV

IC50 [1] [nM]	SMILES	IC50 (L02) [nM]	IC50 (HUVEC) [nM]	IC50 (HEK293) [nM]	other results
	CC(C)Oc1cc2ncnc(Oc3ccc(NC(=O)Nc4cc(C(F)(F)F)ccc4F)cc3)c2c2c1OCCO2	5180	4.2	3560	
1.5	O=C(Nc1ccc(Oc2ncnc3cc(OCCCN4CCOCC4)c4c(c23)OCCO4)cc1)Nc1cc(C(F)(F)F)ccc1F	1010	2.3	994	
	O=C(Nc1ccc(Oc2ncnc3cc(OCCCN4CCOCC4)c4c(c23)OCCO4)cc1F)Nc1cc(C(F)(F)F)ccc1F	1510	4.7	1160	
1.5	COc1cc2ncnc(Oc3ccc(NC(=O)Nc4cc(C(F)(F)F)ccc4F)cc3)c2c2c1OCCO2	2190	1.7	2880	
3.4	O=C(Nc1ccc(Oc2ncnc3cc(OCCCN4CCOCC4)c4c(c23)OCCO4)c(F)c1)Nc1cc(C(F)(F)F)ccc1F	801	1.5	700	
1.7	COCCOc1cc2ncnc(Oc3ccc(NC(=O)Nc4cc(C(F)(F)F)ccc4F)cc3)c2c2c1OCCO2	1160	1.1	894	
	COc1cccc(NC(=O)Nc2ccc(Oc3ncnc4cc(OC)c5c(c34)OCCO5)cc2)c1	34300	3	> 25000	
	O=C(Nc1cc(C(F)(F)F)ccc1F)Nc1ccc(Oc2ncnc3cc(OCCCN4CCOCC4)c4c(c23)OCCO4)cc1Cl	5980	4	5180	
	COc1cc2nccc(Oc3ccc(NC(=O)NC4CC4)c(Cl)c3)c2cc1C(N)=O [LENVATINIB]		3		

SMILES	IC50 [1] [nM]	IC50 (L02) [nM]	IC50 (HUVEC) [nM]	IC50 (HEK293) [nM]	other results
COc1cc2ncnc(Oc3ccc(NC(=O)Nc4ccc(Cl)c(C(F)(F)F)c4)cc3)c2c2c1OCCO2	2.4	3860	1.2	7540	Activity [2]: Non-Toxic; Activity [3]: Toxic; inhibition in vivo at 60 mg/kg (SMMC-7721 [4]): 118%; inhibition in vivo at 60 mg/kg (SMMC-7721 [5]): 133%; Activity [6]: Non-Toxic; Activity (SMMC-7721 [7]): 63.3 mm3; IC50 (SMMC-7721 [8]): 376 nM; Activity (SMMC-7721 [9]): 14 mm3
